{"source": "patent US20230043813A1", "about": "“METHODS FOR TARGETED CELL DEPLETION” (The Regents of the University of California, priority 2019, published 2023)", "key": {"[1]": {"tested_on": "Cas9 expressing U-251, LN-229, T98G, and LN-18 cells", "test": "colony formation assay (crystal violet)", "type": "cell-based, human", "details": "all four tested GBM cell lines, two weeks", "method": "Because recurrent tumors develop from cells that escape treatment, either by avoiding exposure, tolerating the effects, or developing resistance, colony formation assays were performed to evaluate the robustness of CRISPR-Cas genome shredding in eliminating target cells.\nTMZ-resistant LN-229 cell lines were isolated to determine which types of treatments could overcome such resistance. Cas9 expressing U-251, LN-229, T98G, and LN-18 cells were stably transduced with lentiviral vectors expressing sgNT-1/2 or sgCIDE-1/2/3/6/8/10 (Table 2), and seeded at 100, 1,000, and 10,000 cells per 6-well plate. Control cells were treated with DMSO or TMZ (50 μM)."}, "[2]": {"tested_on": "U-251, LN-229, T98G and LN-18 glioblastoma cells", "test": "luminescence-based quantification of cell viability", "parameters": "species or system human", "details": "over five days", "method": "To investigate the speed of cell elimination by either method, Cas9 expressing TMZ-sensitive U-251 and LN-229, and TMZ-resistant T98G and LN-18, glioblastoma cells were treated with TMZ or these cells were transduced with lentiviral vectors expressing sgCIDEs."}, "[3]": {"tested_on": "Cas9 expressing U-251, LN-229, T98G, and LN-18 glioblastoma cells", "test": "cell cycle analysis (PI staining, flow cytometry)", "type": "cell-based, human", "details": "one to five days; TMZ 50 μM or 100 μM", "method": "The effects of genome shredding on cell cycle progression were then assessed. Cells were treated with TMZ or sgCIDEs for one to five days and then stained with PI after fixation for analysis by flow cytometry. […] Increases of the Sub-G1 population was more prominent in TP53-mutant U-251 cells compared LN-229 with wild-type TP53, consistent with previous observations that TP53 status affects resolution of the G2/M arrest."}, "[4]": {"tested_on": "HEK293T and HAP1 cells", "test": "mammalian competitive proliferation assay, cells expressing Cas9 WT", "type": "cell-based, human", "details": "WT Cas9, eight-day assay period", "from_the_text": "(§1) For assessment of CRISPR-Cas programmed cell depletion using guide RNAs targeting an essential gene (RPA1) or sgCIDEs targeting hundreds of thousands of loci within the genome, cells were stably transduced with a lentiviral vector expressing Cas9-wt (pCF226) or ProCas9Flavi (pCF730) and selected on puromycin. Subsequently, these cell lines were further stably transduced with vectors expressing various mCherry-tagged sgRNAs and analyzed as follows: 1) After mixing sgRNA expressing populations with parental cells, the fraction of mCherry-positive cells was quantified over time. Different sgRNAs targeting a neutral gene (sgOR2B6), an essential gene (sgRPA1), >100,000 genomic loci (sgCIDE) and a non-targeting control (sgNT) were compared. 2) Alternatively, the cell lines were partially transduced with lentiviral vectors expressing a GFP-tagged dTEV (pCF736) or WNV (pCF738) protease, and cell depletion quantified by flow cytometry. Depletion of protease-expressing (GFP+) cells was quantified among the sgRNA-positive (mCherry+) population.\nThe effect of guide RNA expression on cell viability was assessed using a competitive proliferation assay in which cells expressing a specific sgRNA were mixed with parental cells expressing only Cas9 WT, and the mCherry-positive population was followed over time. […] Guide RNAs targeting the essential RPA1 gene depleted over the eight-day assay period."}, "[5]": {"tested_on": "HEK293T and HAP1 cells expressing ProCas9Flavi", "test": "competitive proliferation assay, cells expressing ProCas9Flavi", "type": "cell-based, human", "details": "for cell depletion with protease: ProCas9Flavi cells, WNV protease vs dTEV; for cell depletion in the absence of a stimulus: genomically integrated ProCas9Flavi", "from_the_text": "as §1\nCas-induced death by editing or ‘CIDE, as an output constrains the performance of ProCas9. The system remains off to minimize genomic damage yet is vigilant to respond to a stimulus. To develop this protease-induced altruistic defense platform, stable expression of the best CIDE guide RNAs (sgCIDE-2, sgCIDE-4) was assessed in conjunction with a genomically integrated ProCas9Flavi cassette to determine cell viability in the absence of a stimulus (FIG. 5B). […] Induction of this stably integrated altruistic defense system was then tested by Flavivirus proteases."}, "[6]": {"tested_on": "Cas9 expressing U-251 and LN-229", "test": "comet assay (genomic fragmentation)", "type": "cell-based, human", "details": "24 hours post-transduction, compared to sgNT-1/2/3", "from_the_text": "To look at the genomic effects of repetitive loci targeting, DNA from lysed targeted cells was separated on agarose-coated slides."}}}
{"substance": "sgNT-2: non-targeting guide RNA GCGATGGGGGGGTGGGTAGC (SEQ ID NO:30) (chemistry not fully specified) [reference compound]", "values": [{"measurement": "effect on colony count", "setting": "[1]", "result": "little effect on colony formation"}, {"measurement": "lethality (cell viability)", "setting": "[2]", "result": "no effect"}, {"measurement": "cell cycle profile", "setting": "[3]", "result": "comparable normal cell cycle profiles"}]}
{"substance": "sgNT-1: non-targeting guide RNA GGCCAAACGTGCCCTGACGG (SEQ ID NO:29) (chemistry not fully specified) [reference compound]", "values": [{"measurement": "effect on colony count", "setting": "[1]", "result": "little effect on colony formation"}, {"measurement": "lethality (cell viability)", "setting": "[2]", "result": "no effect"}, {"measurement": "cell cycle profile", "setting": "[3]", "result": "comparable normal cell cycle profiles"}]}
{"substance": "sgCIDE-10: guide RNA TTCTCCTGCCTCAGCCTCCC (SEQ ID NO:10) (chemistry not fully specified)", "values": [{"measurement": "effect on colony count", "setting": "[1]", "result": "over three log-scales reduction in colony count"}, {"measurement": "lethality (cell viability)", "setting": "[2]", "result": "viral titer-dependent lethality in all four tested glioblastoma cell lines"}, {"measurement": "cell cycle profile", "setting": "[3]", "result": "rapid increase of the Sub-G1 population starting at day one post-transduction"}]}
{"substance": "sgCIDE-6: guide RNA CCCAGCACTTTGGGAGGCCG (SEQ ID NO:6) (chemistry not fully specified)", "values": [{"measurement": "effect on colony count", "setting": "[1]", "result": "over three log-scales reduction in colony count"}, {"measurement": "lethality (cell viability)", "setting": "[2]", "result": "viral titer-dependent lethality in all four tested glioblastoma cell lines"}, {"measurement": "cell cycle profile", "setting": "[3]", "result": "rapid increase of the Sub-G1 population starting at day one post-transduction"}]}
{"substance": "sgRPA1-3: guide RNA to essential gene RPA1, ACTTTCGTCAACCAGTTCTA (SEQ ID NO:37) [reference compound]", "values": [{"measurement": "cell cycle profile", "setting": "[3]", "result": "accumulation in S-phase starting at day three, accompanied by increase of the Sub-G1 population"}]}
{"substance": "sgCIDE-5: guide RNA CCTCGGCCTCCCAAAGTGCT (SEQ ID NO:5) (chemistry not given here)", "values": [{"measurement": "depletion of the mCherry-positive population", "setting": "[4]", "result": "rapid elimination of the mCherry-positive population"}]}
{"substance": "sgCIDE-4: guide RNA CGCCTGTAATCCCAGCACTT (SEQ ID NO:4) (chemistry not given here)", "values": [{"measurement": "cell depletion with protease", "setting": "[5]", "result": "specific cell depletion"}, {"measurement": "cell depletion in the absence of a stimulus", "setting": "[5]", "result": "only minimal amounts of cell depletion"}, {"measurement": "depletion of the mCherry-positive population", "setting": "[4]", "result": "rapid elimination of the mCherry-positive population"}]}
{"substance": "sgCIDE-3: guide RNA GCCTGTAATCCCAGCACTTT (SEQ ID NO:3) (chemistry not fully specified)", "values": [{"measurement": "comet tails (genomic fragmentation)", "setting": "[6]", "result": "very long tails"}, {"measurement": "effect on colony count", "setting": "[1]", "result": "over three log-scales reduction in colony count"}, {"measurement": "lethality (cell viability)", "setting": "[2]", "result": "viral titer-dependent lethality in all four tested glioblastoma cell lines"}, {"measurement": "cell cycle profile", "setting": "[3]", "result": "rapid increase of the Sub-G1 population starting at day one post-transduction"}]}
{"substance": "sgRPA1-2: guide RNA to essential gene RPA1, TACCTGGAGCAACTCCCGAG (SEQ ID NO:36) [reference compound]", "values": [{"measurement": "cell cycle profile", "setting": "[3]", "result": "accumulation in S-phase starting at day three, accompanied by increase of the Sub-G1 population"}]}
{"substance": "sgCIDE-8: guide RNA CTGTAATCCCAGCACTTTGG (SEQ ID NO:8) (chemistry not fully specified)", "values": [{"measurement": "effect on colony count", "setting": "[1]", "result": "over three log-scales reduction in colony count"}, {"measurement": "lethality (cell viability)", "setting": "[2]", "result": "viral titer-dependent lethality in all four tested glioblastoma cell lines"}, {"measurement": "cell cycle profile", "setting": "[3]", "result": "rapid increase of the Sub-G1 population starting at day one post-transduction"}]}
{"substance": "sgCIDE-2: guide RNA TCCCAAAGTGCTGGGATTAC (SEQ ID NO:2) (chemistry not given here)", "values": [{"measurement": "comet tails (genomic fragmentation)", "setting": "[6]", "result": "very long tails"}, {"measurement": "cell depletion with protease", "setting": "[5]", "result": "specific cell depletion"}, {"measurement": "cell depletion in the absence of a stimulus", "setting": "[5]", "result": "only minimal amounts of cell depletion"}, {"measurement": "effect on colony count", "setting": "[1]", "result": "over three log-scales reduction in colony count"}, {"measurement": "depletion of the mCherry-positive population", "setting": "[4]", "result": "rapid elimination of the mCherry-positive population"}, {"measurement": "lethality (cell viability)", "setting": "[2]", "result": "viral titer-dependent lethality in all four tested glioblastoma cell lines"}, {"measurement": "cell cycle profile", "setting": "[3]", "result": "rapid increase of the Sub-G1 population starting at day one post-transduction"}]}
{"substance": "sgCIDE-1: guide RNA TGTAATCCCAGCACTTTGGG (SEQ ID NO:1), targets repetitive genomic sites (chemistry not given here)", "values": [{"measurement": "comet tails (genomic fragmentation)", "setting": "[6]", "result": "very long tails"}, {"measurement": "effect on colony count", "setting": "[1]", "result": "over three log-scales reduction in colony count"}, {"measurement": "depletion of the mCherry-positive population", "setting": "[4]", "result": "rapid elimination of the mCherry-positive population"}, {"measurement": "lethality (cell viability)", "setting": "[2]", "result": "viral titer-dependent lethality in all four tested glioblastoma cell lines"}, {"measurement": "cell cycle profile", "setting": "[3]", "result": "rapid increase of the Sub-G1 population starting at day one post-transduction"}]}
{"substance": "sgOR2B6-2: guide RNA to olfactory receptor gene, GGGTATGAAGTTTGGTGTCC (SEQ ID NO:33) (chemistry not given here) [reference compound]", "values": [{"measurement": "depletion of the mCherry-positive population", "setting": "[4]", "result": "no depletion"}, {"measurement": "cell cycle profile", "setting": "[3]", "result": "comparable normal cell cycle profiles"}]}
{"substance": "sgOR2B6-1: guide RNA to olfactory receptor gene, CATTATTCTAGTGTCACGCC (SEQ ID NO:32) (chemistry not given here) [reference compound]", "values": [{"measurement": "depletion of the mCherry-positive population", "setting": "[4]", "result": "no depletion"}, {"measurement": "cell cycle profile", "setting": "[3]", "result": "comparable normal cell cycle profiles"}]}
